Measurements: publication PMC2639705, “Two Chromogranin A-Derived Peptides Induce Calcium Entry in Human Neutrophils by Calmodulin-Regulated Calcium Independent Phospholipase A2” (PLoS ONE, 2009)
Entries after “also recorded” stand apart in the source; their conditions may differ. Where two headings read alike, the source gives them in different places. Positions of bridges follow the written chain, without caps; N, C: chain ends. No end group written: not given here. rhodamine = not defined here

Columns and labels:
[1] = system: PMNs; assay: HPLC and NanoLC-MS/MS proteomic analysis of PMN secretions induced by CHR and CAT; settings: trypsin, protein threshold 1 peptide score > 52 or at least 2 peptides with score >20
[2] = system: iPLA2; assay: iPLA2 activity assay (modified cPLA2 assay kit); format: biochemical, human; settings: 20 µM CHR, 20 µM CAT, 1 µM CMZ or 50 µM W7, 30 min at 37°C; absorbance 405 nm per mg protein; two experiments in triplicate
Protocol: C) iPLA2 activity assay: Stimulation of iPLA2 activity after treatment by 20 µM CHR or 20 µM CAT for 30 min at 37°C and comparison with the effects of two CaM-binding factors (1 µM CMZ, 50 µM W7) and one iPLA2 inhibitor (25 µM BEL). Activity of iPLA2 is expressed as the absorbance (Abs/mg of protein) at λ405 nm.
PMNs (3.10^8) were collected, sonicated 3 times for 10 s with a 15 s break between cycles, and centrifuged at 15,000× g for 20 min at 4°C. The supernatant was removed and kept on ice. After determination of the protein concentration (Bradford assay), iPLA2 activity measurement was obtained in presence of different peptide concentrations using the cPLA2 assay kit, according to the modified method previously reported (cPLA2 assay kit, Caymen chemical), [36]. Results were from two similar experiments, each performed in triplicates.

[3] = system: SOCs; design: method as in PMID 15280576, PMID 15951181, PMID 17003039; settings: ref [42]–[44]; cited from earlier work
[4] = system: PMNs; assay: Time-lapse intracellular Ca2+ imaging (Fura-2), with SOC/ARC blockers and iPLA2/PLA2 inhibitors; format: cell-based, human; settings: for Ca2+ influx induced by CaM antagonists: 30 µM W7 or 1 µM CMZ
[5] = system: PMNs; assay: Confocal microscopy, uptake of rhodamine-labelled peptides into PMNs; format: cell-based, human; settings: 20 µM rhodamine-labelled peptide, 2 min, PBS pH 7.4, room temperature, confocal microscopy after paraformaldehyde fixation
Protocol: PMNs (1.10^6/mL) were incubated 2 min at room temperature (RT) with rhodamine-labelled peptides (20 µM) in Phosphate Buffered Saline consisting of 10.5 mM KH2PO4, 30 mM Na2HPO4, 0.154 M NaCl, pH 7.4, washed and subsequently centrifuged by cytospins of 1–2.10^5 isolated PMNs onto glass slides (300 rpm, 10 min, RT). Cytospins were fixed with 4% (v/v) paraformaldehyde in PBS at RT for 20 min, then incubated with Draq-5 (dilution1∶500, Biostatus Limited., Leicestershire, UK) for 15 min. Stained cells were monitored with a Zeiss LSM 510 laser scanning microscope (Zeiss, Iena, Germany) equipped with a Planapo oil immersion objective (×63, numerical aperture 1.4).

[6] = system: human PMNs; assay: Flow cytometry, Ca2+ influx in Fluo-3-loaded PMNs; format: cell-based; settings: for Ca2+ influx: human PMNs, Fluo-3, 20 µM peptide (or tryptic digest of 20 µM CAT/CHR), presence of extracellular Ca2+ (1 mM; 1.1 mM CaCl2 at t = 620 s), at least triplicates
[7] = system: pancreatic beta-cells; settings: ref [2]; cited from earlier work
Description: Chromogranin A (CgA) is a well-studied member of the chromogranin/secretogranin family, present in secretory cells of the nervous, endocrine and immune systems. CgA was the first chromogranin to be characterized as an acidic protein co-stored and co-released with the catecholamine hormones from the chromaffin cells of the adrenal medulla. […] Numerous endogenous cl ...

[8] = system: calmodulin (CaM); assay: Surface Plasmon Resonance, CaM binding to immobilized peptides; settings: pH 6.5
Protocol: Figure 5 Interaction of CHR and CAT with calmodulin (CaM). A) Fluorescence confocal microscopy of PMNs after incubation during 120 s with 20 µM rhodamine-labeled peptides (Rho-CHR or Rho-CAT). Control peptide: 20 µM rhodamine labeled Hippocampal Cholinergic Neurostimulating Peptide (Rho-HCNP). The PMNs nuclei were labeled with Draq-5. B) Alignment of the CHR and CAT sequences with two CaM binding motifs 1-8-14 B and 1-5-10. The alignment has been obtained manually so that hydrophobic residues occupy invariant positions shown with boldface letters. The net positive charge is also indicated. C) (1) Interactions between CaM, CAT and CHR by Surface Plasmon Resonance (SPR) Peptides were immobilized on a CM5 Biacore chip using amine-coupling chemistry. CaM (5 µM) was added at arrow and allowed to stabilize for 10 min. Dissociation by washing was recorded for the following 10 min. All measurements were performed at 20°C. The resulting sensorgrams were analyzed using BIAevaluation Software. (2) Calmodulin-Affinity Chromatography of CHR and CAT. The retained and eluted peptides were immunodetected by dot blot with anti-CHR (monoclonal anti-CgA47–68) and anti-CAT (polyclonal anti-CgA344–364). […]
Experiments were conducted on a Biacore 3000™ (GE Healthcare) and peptides were immobilized on a CM5 Biacore chip using amine-coupling. […] Sensorgrams were analyzed by using BIAevaluation Software.

Castestatin (SSMKLSFRARAYGFRGPGPQL; Catestatin; UniProt P10645 370-390, looked up)
Protein identified in PMN secretion (Protein name) ([1]; sample Castestatin_1, Mascot): Protein S100-A9 - Homo sapiens (Human); also recorded: Protein S100-A12 - Homo sapiens (Human) | Protein identified in PMN secretion (Protein name) ([1]; sample Castestatin_6, Mascot): Actin, cytoplasmic 1 - Homo sapiens (Human) | Protein identified in PMN secretion (Protein name) ([1]; sample Castestatin_7, Mascot): Actin, cytoplasmic 1 - Homo sapiens (Human) | Protein identified in PMN secretion (Protein name) ([1]; sample Castestatin_8, Mascot): Hemoglobin subunit alpha - Homo sapiens (Human) | Protein identified in PMN secretion (Protein name) ([1]; sample Castestatin_9, Mascot): Hemoglobin subunit beta - Homo sapiens (Human) | Protein identified in PMN secretion (Protein name) ([1]; sample Castestatin_10, Mascot): High mobility group protein B2 - Homo sapiens (Human); also recorded: Hemoglobin subunit beta - Homo sapiens (Human) | Protein identified in PMN secretion (Protein name) ([1]; sample Castestatin_11, Mascot): Heterogeneous nuclear ribonucleoproteins A2/B1 - Homo sapiens (Human); also recorded: Phosphatidylethanolamine-binding protein 1 - Homo sapiens (Human); also recorded: Heterogeneous nuclear ribonucleoprotein A1 - Homo sapiens (Human); also recorded: Filamin-A - Homo sapiens (Human); also recorded: Low affinity immunoglobulin gamma Fc region receptor III-B precursor - Homo sapiens (Human); also recorded: Alpha-1-acid glycoprotein 1 precursor - Homo sapiens (Human); also recorded: Haptoglobin precursor [Contains: Haptoglobin alpha chain; Haptoglobin beta chain] - Homo sapiens (Human); also recorded: SH3 domain-binding glutamic acid-rich-like protein - Homo sapiens (Human)

Clc1ccc(C(c2ccc(Cl)cc2)n2cc[n+](CC(OCc3ccc(Cl)cc3Cl)c3ccc(Cl)cc3Cl)c2)cc1 (stereo not shown) [CMZ, calmidazolium]
stimulation of iPLA2 enzymatic activity in PMNs [2]: stimulated | direct activation of SOCs [3]: may directly activate SOCs without the release of intracellular Ca^2+ stores | Ca2+ influx induced by CaM antagonists ([4]; PMNs, Fura-2, 37°C): induced longer lasting rises in influx

rhodamine-labeled CAT: CAT conjugated with 5(6)-carboxytetramethyl rhodamine at the N-terminal extremity ({5(6)‑carboxytetramethylrhodamine}-SSMKLSFRARAYGFRGPGPQL; UniProt P10645 370-390, looked up)
detection in PMN cytoplasm (uptake) [5]: detected in the cytoplasm

O=C1O/C(=C/Br)CCC1c1cccc2ccccc12 (stereo not shown) [BEL, Bromoenol lactone]
inhibition of CAT-induced Ca2+ entry ([4]; PMNs, Fura-2, 20 µM CAT, 2.5 mM CaCl2, 100 µM 2-APB (2 min), 25 µM BEL (30 min) or 10 µM BPB (10 min) before peptide): abolished the transient Ca^2+ influx | inhibition of CHR-induced Ca2+ entry ([4]; PMNs, Fura-2, 20 µM CHR, 2.5 mM CaCl2, 100 µM 2-APB (2 min), 25 µM BEL (30 min) or 10 µM BPB (10 min) before peptide): abolished the transient Ca^2+ influx | suppression of CMZ-induced Ca2+ influx ([4]; PMNs, Fura-2, 37°C, 1 µM CMZ, 25 µM BEL (30 min), 10 µM BPB (10 min) or 100 µM 2-APB (2 min) before): significantly suppressed | suppression of W7-induced Ca2+ influx ([4]; PMNs, Fura-2, 37°C, 30 µM W7, 25 µM BEL (30 min), 10 µM BPB (10 min) or 100 µM 2-APB (2 min) before): significantly suppressed

[Cl][Gd]([Cl])[Cl] [Gd^3+, gadolinium chloride]
inhibition of AA-induced Ca2+ influx [4]: inhibited by gadolinium chloride (Gd^3+)

CIVEVISDTLSKPSPMPVSKEC (disulfide 1-22 (inferred)) [CgA17–40]
Ca2+ influx [6]: failed to affect the Ca^2+ influx

Pancreastatin (AAPGWPEDGAGKMGAEEAKPPEGKGEWAHSRQEEEEMARAPQVLFRG; Pancreastatin; UniProt P05059 266-312, looked up) [CgA-derived peptide (bCGA248–293)]
effect on glucose-evoked insulin secretion [7]: able to inhibit the glucose-evoked insulin secretion from pancreatic beta-cells

ALQGAKERTHQQ [CgA65–76, the natural peptide CgA65–76 (…)]
Ca2+ influx [6]: failed to affect the Ca^2+ influx

NCCOB(c1ccccc1)c1ccccc1 [2-APB, 2-aminoethyl diphenylborinate]
inhibition of AA-induced Ca2+ influx [4]: insensitive to 2-APB | inhibition of CAT-induced Ca2+ entry [4]: completely blocked the entry of extracellular Ca^2+; also recorded: inhibits completely the calcium entry; also recorded: abolished the transient Ca^2+ influx induced by CHR or CAT similarly to 2-APB | inhibition of CHR-induced Ca2+ entry [4]: completely blocked the entry of extracellular Ca^2+; also recorded: inhibits completely the calcium entry; also recorded: abolished the transient Ca^2+ influx induced by CHR or CAT similarly to 2-APB | suppression of CMZ-induced Ca2+ influx [4]: significantly suppressed | suppression of W7-induced Ca2+ influx [4]: significantly suppressed

NSPMNKGDTEVMK [CgA4–16, peptide derived from the N-terminal CgA domain (…)]
Ca2+ influx [6]: failed to affect the Ca^2+ influx

rhodamine-labeled Hippocampal Cholinergic Neurostimulating Peptide (HCNP): control peptide, rhodamine-labeled Hippocampal Cholinergic Neurostimulating Peptide (HCNP) (rhodamine-PVDLSKWSGPL; reading uncertain; UniProt P30086 2-12, looked up)
Ca2+ influx induced by labelled control peptide ([6]; PMNs, data not shown, method and concentration not stated): unable to induce Ca^2+ influx into PMNs | detection in PMN cytoplasm (uptake) [5]: not detected in the cytoplasm

CCCCC/C=C\C/C=C\C/C=C\C/C=C\CCCC(=O)O [AA, Arachidonic Acid]
Ca2+ influx induced by AA ([4]; PMNs, Fura-2, 50 µM AA, 2.5 mM CaCl2): calcium influx induced by 50 µM AA

NCCCCCCNS(=O)(=O)c1cccc2c(Cl)cccc12 [W7, N-(6-aminohexyl)-5-chloro-l-naphthalenesulfonamide]
stimulation of iPLA2 enzymatic activity in PMNs [2]: stimulated | Ca2+ influx induced by CaM antagonists ([4]; PMNs, Fura-2, 37°C): induced longer lasting rises in influx

scrambled CAT: scrambled CAT peptide (SLPRRQLPSSAGMRGGKFAYF)
interaction with CaM by SPR [8]: inactive
